Values of other authors in patent publication US9969773B2, “Polymers, pharmaceutical compositions and methods of synthesizing the same” (NEW YORK UNIVERSITY, priority 2014, dated 2018).

half-life in serum: ~5 min
SMILES: CC[C@H](C)[C@H](NC(=O)[C@H](CCC(=O)O)NC(=O)[C@H](CO)NC(=O)[C@@H](NC(=O)[C@@H](N)CO)C(C)C)C(=O)N[C@@H](CCC(N)=O)C(=O)N[C@@H](CC(C)C)C(=O)N[C@@H](CCSC)C(=O)N[C@@H](Cc1cnc[nH]1)C(=O)N[C@@H](CC(N)=O)C(=O)N[C@@H](CC(C)C)C(=O)NCC(=O)N[C@@H](CCCCN)C(=O)N[C@@H](Cc1cnc[nH]1)C(=O)N[C@@H](CC(C)C)C(=O)N[C@@H](CC(N)=O)C(=O)N[C@@H](CO)C(=O)N[C@@H](CCSC)C(=O)N[C@@H](CCC(=O)O)C(=O)N[C@@H](CCCN=C(N)N)C(=O)N[C@H](C(=O)N[C@@H](CCC(=O)O)C(=O)N[C@@H](Cc1c[nH]c2ccccc12)C(=O)N[C@@H](CC(C)C)C(=O)N[C@@H](CCCN=C(N)N)C(=O)N[C@@H](CCCCN)C(=O)N[C@@H](CCCCN)C(=O)N[C@@H](CC(C)C)C(=O)N[C@@H](CCC(N)=O)C(=O)N[C@@H](CC(=O)O)C(=O)N[C@H](C(=O)N[C@@H](Cc1cnc[nH]1)C(=O)N[C@@H](CC(N)=O)C(=O)N[C@@H](Cc1ccccc1)C(=O)O)C(C)C)C(C)C [PTH (1-34), parathyroid hormone (1-34)]
